From the supplement of paper PMC10307832

How the values were obtained:
Assay in all cases: relative viability (nuclei count vs DMSO), 5 days (fraction); higher = more cells survive
[1] = compound: CCc1cnn2c(NCc3ccc[n+]([O-])c3)cc(N3CCCC[C@H]3CCO)nc12 [Dinaciclib] + CS(=O)(=O)N1CCN(Cc2cc3nc(-c4cccc5[nH]ncc45)nc(N4CCOCC4)c3s2)CC1 [Pictilisib] (partner 1 µM)
How it was run: (§1)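 Values are medians from duplicate plates. Each reflects relative viability, defined as the nuclei count of treated wells over that of vehicle wells. Lung cancer cell lines in 1536-well plates were pin-tool dosed one day after seeding with one drug alone or with a fixed anchor-drug dose plus five library-drug doses (not always all listed) in √10 steps, then fixed, stained and imaged at 4× after 5 days.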

[2] = compound: CCc1cnn2c(NCc3ccc[n+]([O-])c3)cc(N3CCCC[C@H]3CCO)nc12 [Dinaciclib] + C[C@@H](Oc1cc(-c2cnn(C3CCNCC3)c2)cnc1N)c1c(Cl)ccc(F)c1Cl [Crizotinib] (partner 1 µM)
How it was run: as §1

[3] = compound: CCc1cnn2c(NCc3ccc[n+]([O-])c3)cc(N3CCCC[C@H]3CCO)nc12 [Dinaciclib] + CCNC(=O)c1noc(-c2cc(C(C)C)c(O)cc2O)c1-c1ccc(CN2CCOCC2)cc1 [Luminespib] (partner 0.01 µM)
How it was run: as §1

[4] = compound: CCc1cnn2c(NCc3ccc[n+]([O-])c3)cc(N3CCCC[C@H]3CCO)nc12 [Dinaciclib] + C[C@]1(O)C[C@@H](c2nc(-c3ccc4ccc(-c5ccccc5)nc4c3)c3c(N)nccn32)C1 [Linsitinib] (partner 1 µM)
How it was run: as §1

[5] = compound: CCc1cnn2c(NCc3ccc[n+]([O-])c3)cc(N3CCCC[C@H]3CCO)nc12 [Dinaciclib] + N=C(N)NC(=N)NCCc1ccccc1 [Phenformin] (partner 250 µM)
How it was run: as §1

| Cell Line | relative viability ([1]; first compound 0.009487 µM) | relative viability ([1]; first compound 0.03 µM) | relative viability ([1]; first compound 0.09487 µM) | relative viability ([1]; first compound 0.3 µM) | relative viability ([2]; first compound 0.009487 µM) | relative viability ([2]; first compound 0.03 µM) | relative viability ([2]; first compound 0.09487 µM) | relative viability ([2]; first compound 0.3 µM) | relative viability ([3]; first compound 0.009487 µM) | relative viability ([3]; first compound 0.03 µM) | relative viability ([3]; first compound 0.09487 µM) | relative viability ([3]; first compound 0.3 µM) | relative viability ([4]; first compound 0.009487 µM) | relative viability ([4]; first compound 0.03 µM) | relative viability ([4]; first compound 0.09487 µM) | relative viability ([4]; first compound 0.3 µM) | relative viability ([5]; first compound 0.009487 µM) | relative viability ([5]; first compound 0.03 µM) | relative viability ([5]; first compound 0.09487 µM) | relative viability ([5]; first compound 0.3 µM) |
| --- | --- | --- | --- | --- | --- | --- | --- | --- | --- | --- | --- | --- | --- | --- | --- | --- | --- | --- | --- | --- |
| NCI-H838 | 0.28 | 0.117 | 0.111 | 0.101 | 0.791 | 0.182 | 0.0924 | 0.0905 | 0.295 | 0.134 | 0.104 | 0.0905 | 0.547 | 0.137 | 0.113 | 0.112 | 0.247 | 0.117 | 0.0955 | 0.104 |
| NCI-H3122 | 0.385 | 0.178 | 0.134 | 0.13 | 0.253 | 0.127 | 0.145 | 0.13 | 0.115 | 0.122 | 0.0991 | 0.0858 | 0.932 | 0.147 | 0.145 | 0.147 | 0.172 | 0.101 | 0.103 | 0.106 |
| SK-MES-1 | 0.381 | 0.24 | 0.128 | 0.128 | 0.969 | 0.18 | 0.191 | 0.155 | 0.428 | 0.131 | 0.167 | 0.152 | 1.08 | 0.493 | 0.168 | 0.164 | 0.533 | 0.171 | 0.147 | 0.153 |
| NCI-H1944 | 0.4 | 0.172 | 0.168 | 0.177 | 1.14 | 0.143 | 0.136 | 0.126 | 0.799 | 0.142 | 0.137 | 0.137 | 1.36 | 0.613 | 0.192 | 0.225 | 0.184 | 0.117 | 0.121 | 0.13 |
| LK-2 | 0.358 | 0.23 | 0.21 | 0.214 | 0.232 | 0.202 | 0.21 | 0.18 | 0.165 | 0.139 | 0.166 | 0.162 | 0.523 | 0.127 | 0.159 | 0.117 | 0.274 | 0.142 | 0.156 | 0.125 |
| PC-3 [JPC-3] | 0.556 | 0.578 | 0.262 | 0.233 | 0.953 | 0.799 | 0.232 | 0.198 | 0.668 | 0.417 | 0.219 | 0.199 | 0.912 | 0.991 | 0.537 | 0.237 | 0.492 | 0.476 | 0.326 | 0.204 |
| COR-L23 | 0.414 | 0.0756 | 0.0621 | 0.0547 | 0.456 | 0.0842 | 0.0684 | 0.0575 | 0.226 | 0.0887 | 0.0655 | 0.0681 | 0.736 | 0.0901 | 0.0662 | 0.0681 | 0.296 | 0.0764 | 0.0763 | 0.069 |
| NCI-H1355 | 0.476 | 0.146 | 0.0972 | 0.133 | 1.17 | 0.762 | 0.185 | 0.141 | 0.703 | 0.246 | 0.135 | 0.195 | 0.899 | 0.635 | 0.151 | 0.132 | 0.502 | 0.319 | 0.183 | 0.184 |
| NCI-H460 | 0.264 | 0.0398 | 0.0429 | 0.0452 | 0.688 | 0.0158 | 0.0092 | 0.011 | 0.031 | 0.015 | 0.0141 | 0.0129 | 0.434 | 0.0071 | 0.0074 | 0.0155 | 0.296 | 0.0189 | 0.0192 | 0.0198 |
| NCI-H1993 | 0.694 | 0.834 | – | 0.588 | 0.735 | 0.766 | – | 0.642 | 0.723 | 0.472 | 0.53 | 0.474 | 0.69 | 0.586 | – | 0.518 | 0.466 | 0.581 | 0.594 | 0.565 |
| ChaGo-K-1 | 0.321 | 0.213 | 0.175 | 0.161 | 0.699 | 0.229 | 0.224 | 0.214 | 0.342 | 0.182 | 0.123 | 0.0984 | – | – | – | – | 0.414 | 0.17 | 0.125 | 0.137 |
| HCC-15 | 0.637 | 0.117 | 0.0949 | 0.11 | 0.618 | 0.098 | 0.0953 | 0.0947 | 0.122 | 0.1 | 0.102 | 0.141 | 0.76 | 0.171 | 0.113 | 0.101 | 0.352 | 0.115 | 0.107 | 0.103 |
| NCI-H23 | 0.41 | 0.148 | 0.126 | 0.145 | 0.47 | 0.171 | 0.107 | 0.0907 | 0.197 | 0.172 | 0.168 | 0.148 | 0.508 | 0.142 | 0.105 | 0.109 | 0.807 | 0.31 | 0.114 | 0.116 |
| NCI-H1395 | 0.483 | 0.248 | 0.269 | 0.248 | – | – | – | – | 0.631 | 0.31 | 0.244 | 0.238 | 1.56 | 0.249 | 0.297 | 0.277 | 0.453 | 0.306 | 0.301 | 0.248 |
| NCI-H1666 | 0.4 | 0.19 | 0.21 | 0.226 | 0.742 | 0.194 | 0.202 | 0.271 | 1.07 | 0.361 | 0.357 | 0.305 | 0.656 | 0.198 | 0.209 | 0.216 | 0.461 | 0.34 | 0.4 | 0.347 |
| NCI-H2405 | 0.572 | 0.226 | 0.227 | 0.177 | 0.772 | 0.224 | 0.201 | 0.209 | 0.688 | 0.231 | 0.193 | 0.247 | 0.989 | 0.25 | 0.262 | 0.235 | 0.417 | 0.253 | 0.223 | 0.186 |
